Test results: PubChem BioAssay AID1918953 (Molecular Pharmacology Branch, DTP, NCI, 2023)
“And” between values parts separate entries of the source, which are not always exact repeats. Identical values can stand only once.

Tested on: MDA-MB-231 complex spheroid viability
Experiment: Anticancer human tumor MDA-MB-231/ATCC cell line growth inhibition;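 note: drug exposure lasted 7 days starting on day 3 of spheroid growth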
Details: for viability, T/C: stronger effect = lower value
How it was run: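 Multicellular complex spheroids of tumor cells with human endothelial cells (HUVEC) and mesenchymal stem cells; the LSD1 inhibitor iadademstat was combined with standard-of-care or investigational agents. Top concentration at or near clinical Cmax, half-log dilutions; final DMSO ≤0.25%.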

[1] = curve of first compound, second compound 0.1 µM
[2] = curve of first compound, second compound 0.316 µM
[3] = curve of first compound, second compound 1 µM
[4] = curve of first compound, second compound 3.16 µM
[5] = curve of first compound, second compound 10 µM
[6] = second compound 0.1 µM, first compound 0.0316 µM
[7] = second compound 0.1 µM, first compound 0.1 µM
[8] = second compound 0.1 µM, first compound 0.316 µM
[9] = second compound 0.1 µM, first compound 1 µM
[10] = second compound 0.1 µM, first compound 3.16 µM
[11] = second compound 0.1 µM, first compound 10 µM
[12] = second compound 0.316 µM, first compound 0.0316 µM
[13] = second compound 0.316 µM, first compound 0.1 µM
[14] = second compound 0.316 µM, first compound 0.316 µM
[15] = second compound 0.316 µM, first compound 1 µM
[16] = second compound 0.316 µM, first compound 3.16 µM
[17] = second compound 0.316 µM, first compound 10 µM
[18] = second compound 1 µM, first compound 0.0316 µM
[19] = second compound 1 µM, first compound 0.1 µM
[20] = second compound 1 µM, first compound 0.316 µM
[21] = second compound 1 µM, first compound 1 µM
[22] = second compound 1 µM, first compound 3.16 µM
[23] = second compound 1 µM, first compound 10 µM
[24] = second compound 3.16 µM, first compound 0.0316 µM
[25] = second compound 3.16 µM, first compound 0.1 µM
[26] = second compound 3.16 µM, first compound 0.316 µM
[27] = second compound 3.16 µM, first compound 1 µM
[28] = second compound 3.16 µM, first compound 3.16 µM
[29] = second compound 3.16 µM, first compound 10 µM
[30] = second compound 10 µM, first compound 0.0316 µM
[31] = second compound 10 µM, first compound 0.1 µM
[32] = second compound 10 µM, first compound 0.316 µM
[33] = second compound 10 µM, first compound 1 µM
[34] = second compound 10 µM, first compound 3.16 µM
[35] = second compound 10 µM, first compound 10 µM

| SMILES | IC50 [1] [nM] | IC50 [2] [nM] | IC50 [3] [nM] | IC50 [4] [nM] | IC50 [5] [nM] | viability, T/C [6] [%] | viability, T/C [7] [%] | viability, T/C [8] [%] | viability, T/C [9] [%] | viability, T/C [10] [%] | viability, T/C [11] [%] | viability, T/C [12] [%] | viability, T/C [13] [%] | viability, T/C [14] [%] | viability, T/C [15] [%] | viability, T/C [16] [%] | viability, T/C [17] [%] | viability, T/C [18] [%] | viability, T/C [19] [%] | viability, T/C [20] [%] | other results |
| --- | --- | --- | --- | --- | --- | --- | --- | --- | --- | --- | --- | --- | --- | --- | --- | --- | --- | --- | --- | --- | --- |
| O=C(c1cc(Cc2n[nH]c(=O)c3ccccc23)ccc1F)N1CCN(C(=O)C2CC2)CC1 + NC1CC1c1ccc(-c2cccc(O)c2)cc1 | 1730 | 522 | 378 | 349 | < 31.6 | 71.6 | 64.2 | 67 | 56.1 | 42.7 | 27.1 | 65.5 | 60.6 | 54.8 | 44.5 | 32.3 | 24.8 | 59.6 | 56.9 | 50.7 | viability, T/C [21]: 44.3%; viability, T/C [22]: 32%; viability, T/C [23]: 21.1%; viability, T/C [24]: 65.3%; viability, T/C [25]: 54.1%; viability, T/C [26]: 50.6%; viability, T/C [27]: 45.1%; viability, T/C [28]: 33%; viability, T/C [29]: 22.2%; viability, T/C [30]: 45.4%; viability, T/C [31]: 38.2%; viability, T/C [32]: 36.4%; viability, T/C [33]: 37.2%; viability, T/C [34]: 23.3%; viability, T/C [35]: 19.9% |
| CC(C)CC(NC(=O)CNC(=O)c1cc(Cl)ccc1Cl)B1OC(=O)CC(CC(=O)O)(C(=O)O)O1 (configuration not stated) | – | – | – | – | – | – | – | – | – | – | – | – | – | – | – | – | – | – | – | – | viability, T/C (compound 0.000316 µM): 99% and 100%; viability, T/C (compound 0.001 µM): 104% and 105%; viability, T/C (compound 0.00316 µM): 85.2% and 70.2%; viability, T/C (compound 0.01 µM): 39.5% and 14.9%; viability, T/C (compound 0.0316 µM): 6.41% and 1.24%; viability, T/C (compound 0.1 µM): 0.95% and 0.27%; IC50 (curve of compound): 7.67 nM and 4.84 nM |
| CC1COCCN1c1cc(C2(S(C)(=N)=O)CC2)nc(-c2ccnc3[nH]ccc23)n1 (configuration not stated) + NC1CCC(NC2CC2c2ccccc2)CC1 | 1180 | 1460 | 1530 | 1180 | 1010 | 103 | 99.2 | 82.5 | 51.1 | 38.1 | 29.4 | 111 | 109 | 81.6 | 59.2 | 34.9 | 29.3 | 109 | 100 | 79.5 | viability, T/C [21]: 56%; viability, T/C [22]: 40%; viability, T/C [23]: 30.3%; viability, T/C [24]: 95%; viability, T/C [25]: 87%; viability, T/C [26]: 69.7%; viability, T/C [27]: 53%; viability, T/C [28]: 37.9%; viability, T/C [29]: 33.3%; viability, T/C [30]: 72.4%; viability, T/C [31]: 68.2%; viability, T/C [32]: 59.5%; viability, T/C [33]: 48.1%; viability, T/C [34]: 42.4%; viability, T/C [35]: 32.3% |
